Results taken from patent US12371666B2, “Nucleoside modified mRNA and uses thereof” (BOSTON MEDICAL CENTER CORPORATION, priority 2021, dated 2025).
Where two headings read alike, the source gives them in different places.

Experiments:
[1] = tested on: APAP-induced liver injury; experiment: Acetaminophen-induced liver injury in male and female C57BL/6J mice
Procedure: Images from stained sections were visualized and measured at 40× magnification on ImageJ™ (FIJI) using the area measurement tool. 2-3 lobes were measured and averaged per mouse.

[2] = tested on: centrilobular necrosis; experiment: APAP-NSG liver injury model dose test; conditions: NSG mice, 24 h after injection
[3] = intravenous NAC; cited from earlier work
[4] = tested on: APAP-induced liver injury; type: in vivo; conditions: for survival: GH 2.5 mg/kg or NAC 1000 mg/kg 8 hours post-APAP
Procedure: Acetaminophen-induced liver injury mouse model.
GH and NAC were both diluted in sterile PBS. GH was diluted to a concentration of 1 mg/mL and given at dosage indicated, subcutaneously with a 0.5 mL insulin syringe. NAC was diluted to a concentration of 50 mg/mL and given at 1000 mg/kg dosage, intraperitoneally with a 1 mL insulin syringe.
The statistical analyses for the graphs were carried out using two-sided student's t test for unpaired comparisons with GraphPad Prism™. The statistical analyses for the Kaplan-Meier survival curves were carried out using the Log-rank Mantel-Cox test with GraphPad Prism. A p value<0.05 was considered significant, ***<0.0001, **<0.001, *<0.05, n.s. or no result=not significant.

[5] = tested on: Tg(fabp10a:CFP-NTR) larvae; experiment: Zebrafish NTR/Mtz hepatocyte ablation model of BEC-driven liver regeneration; conditions: for size of regenerating livers: 2 μM, treatment from A0h to R24h
Description: a. […] In the Tg(fabp10a:CFP-NTR)^5931 zebrafish line, bacterial nitroreductase (NTR) is expressed under the hepatocyte-specific fabp10a promoter^2. Since the NTR enzyme converts the non-toxic prodrug, metronidazole (Mtz), into a cytotoxic drug^59, 60 treating the transgenic zebrafish with Mtz specifically ablates hepatocytes. In this model, upon severe hepatocyte loss, BECs first dedifferentiate into LPCs, then re-differentiate into either hepatocytes or BECs, thereby leading to full liver recovery^2.
b. […] Upon targeted chemical screening using the NTR/Mtz model^61, the inventors examined the effect of VEGFR2 inhibition on BEC-driven liver regeneration. The inventors used the Notch reporter line Tg(Tp1:H2B-mCherry)^939 that expresses H2B-mCherry fusion proteins in BECs.
c. […] Given that VEGFR2 functions via at least two major signaling branches, PI3K/AKT and MEK/ERK1/2, the inventors tested which downstream branch controls BEC-driven liver regeneration using their specific inhibitors (LY294002 for PI3K and U0126 for MEK1/2). […] Given the well-known cascade of PI3K-AKT-mTOR, the inventors further examined mTOR activity in the regenerating livers.

[6] = tested on: BEC-driven liver regeneration; conditions: earlier chemical screen of the inventors; cited from earlier work
[7] = tested on: BEC-driven liver regeneration; experiment: BEC-driven liver regeneration in zebrafish hepatocyte ablation model Tg(fabp10a:CFP-NTR) with Mtz; type: in vivo
Procedure: Experiments on zebrafish: All zebrafish experiments were performed under the approval of the IACUC at the University of Pittsburgh. Embryos and adult fish were raised and maintained under standard laboratory conditions. The following transgenic lines were used: Tg(fabp10a:CFP-NTR)s931, Tg(Tp1:H2B-mCherry)s939, Tg(hs:sflt1)bns80, Tg(Tp1:CreERT2)s959, and Tg(hs:loxP-mCherry-loxP-hVEGFA)mn32.
Hepatocyte ablation using the Tg(fabp10a:CFP-NTR) line: Hepatocyte ablation was performed by treating Tg(fabp10a:CFP-NTR) larvae with 10 mM Mtz in egg water supplemented with 0.2% DMSO and 0.2 mM 1-phenyl-2-thiourea from 3.5 to 5 dpf for 36 hours, as previously described^9.
SU5416 treatment: SU5416 (MedChemExpress, Monmouth Junction, NJ) was used at 1.5 μM.
Heat-shock conditions for zebrafish larvae: Both Tg(hs:sflt1) and Tg(hs:loxP-mCherry-loxP-hVEGFA) larvae were heat-shocked by transferring them into egg water pre-warmed to 38.5° C. and keeping them at this temperature for 20 minutes, as previously described^10.
Whole-mount in situ hybridization and immunostaining in zebrafish: Whole-mount in situ hybridization was performed, as previously described^11, with gc^12 and f5 probes. […]
Quantification of Bhmt+ cell number and Bhmt+ area in the zebrafish liver: For the quantification of Bhmt+ cell number, confocal projection images consisting of 6 optical-section images, with 3-μm interval, were used. Bhmt+ and Tp1:H2B-mCherry+ cells were manually counted; the number of Bhmt/Tp:H2B-mCherry double-positive cells was divided by the number of Tp1:H2B-mCherry+ cells. For the quantification of Bhmt+ liver area, confocal projection images showing Bhmt and fabp10a:CFP-NTR expression were used. Both Bhmt^+ and fabp10a:CFP-NTR+ areas in the liver were calculated by ImageJ and the former area was divided by the latter.
Image acquisition, processing, and statistical analysis of zebrafish data: Zeiss LSM700 confocal and Leica MZ16 microscopes were used to obtain image data. Confocal stacks were analyzed using the Zen 2009 software. […] Quantitative data were shown as mean±standard error of the mean (SEM).

[8] = b-estradiol treatment of males in APAP liver injury, serum ALT; type: in vivo, mouse; conditions: IP 0.5 mg/kg in corn oil, 24 hours following APAP injection
[9] = tested on: liver sex-biased genes; conditions: rat GH 25 ng/g BW/hr by minipump, male mice; cited from earlier work

CC(=O)Nc1ccc(O)cc1 [APAP, acetyl-para-aminophenol]
necrosis (H&E), males vs females ([1]; 400 mg/kg): more extensive in male livers and progressively increased overtime, whereas female livers fully recovered by 48 hours
serum bilirubin, males vs females ([1]; 400 mg/kg): persisted for 96 hours in males but decreased after 48 hours in females
injury and lethality ([1]; 400 mg/kg intraperitoneally, both sexes): induces injury in both sexes without lethality up to 96 hours
serum ALT levels, males vs females ([1]; 400 mg/kg, time points post-24 hours): consistently higher in males than in females
liver damage ([2]; 200 mg/Kg): mild
liver damage ([2]; 400 mg/kg): severe damage and ultimately death

CC(=O)N[C@@H](CS)C(=O)O [NAC, N-acetyl cysteine]
patients with anaphylactoid reaction [3]: up to 18%
survival ([4]; females): all females survived regardless of the treatment
necrotic tissue ([4]; females, NAC 1000 mg/kg): did not show the beneficial effect of reducing necrotic tissue
necrotic areas ([4]; males that survived 24 hours post-APAP, NAC 1000 mg/kg): significantly diminished
apoptotic TUNEL+ area ([4]; males, 24 hours post-APAP): significantly diminished
survival ([4]; males, 48 hours post-APAP): all NAC-treated males died by 48 hours post-APAP

CN(C)c1ccc(/C=C2\C(=O)Nc3ccccc32)cc1 [SU4312]
size of regenerating livers [5]: significantly reduced the size of regenerating livers
induction of early hepatocyte markers Prox1 and HNF4α in BEC-derived LPCs [6]: did not affect
size of regenerating livers [6]: significantly reduced the size of regenerating livers

Cc1cc(C)c(/C=C2\C(=O)Nc3ccccc32)[nH]1 [SU5416]
LPC-to-hepatocyte differentiation defect by gc and f5 expression ([7]; R24h): This defect was confirmed
expression of the hepatocyte marker Bhmt ([7]; R24h, SU5416 from A18h to R24h): greatly suppressed the expression of the hepatocyte marker Bhmt
size of regenerating livers ([7]; SU5416 1.5 μM from A18h to R24h): significantly reduced the size of regenerating livers
size of regenerating livers [5]: significantly reduced the size of regenerating livers
expression of Prox1 and Hnf4a in LPCs ([5]; R6h): normal expression of Prox1 and Hnf4a
pS6 expression in LPCs (mTORC1 activation) ([5]; R6h regenerating livers): absent
expression of fabp10a:CFP-NTR ([5]; R24h): very weak expression
expression of the hepatocyte marker Bhmt ([5]; R24h): almost no expression
induction of early hepatocyte markers Prox1 and HNF4α in BEC-derived LPCs [6]: did not affect
size of regenerating livers [6]: significantly reduced the size of regenerating livers

C[C@]12CC[C@@H]3c4ccc(O)cc4CC[C@H]3[C@@H]1CC[C@@H]2O [b-estradiol]
ALT levels [8]: significantly decreased ALT levels

B1: cGH: rat recombinant GH given by continuous infusion via osmotic minipump (protein, UniProt P01244 27-216, looked up)
Somatotropin: FPAMPLSSLFANAVLRAQHLHQLAADTYKEFERAYIPEGQRYSIQNAQAAFCFSETIPAPTGKEEAQQRTDMELLRFSLLLIQSWLGPVQFLSRIFTNSLMFGTSDRVYEKLKDLEEGIQALMQELEDGSPRIGQILKQTYDKFDANMRSDDALLKNYGLLSCFKKDLHKAETYLRVMKCRRFAESSCAF
liver sex-biased genes whose expression is feminized [9]: 92%
